Laboratory results: US11820745B2, “PKC-activating compounds for the treatment of neurodegenerative diseases” (Synaptogenix, Inc., priority 2008, dated 2023)

How the values were obtained:
PKCε = target: T1, PKCε (Homo sapiens, UniProt Q02156); assay: Protein kinase C assay, purified/recombinant PKC epsilon (32P incorporation into histones); type: biochemical
T1 construct: purchased Calbiochem
T1 sequence (Q02156 1-737): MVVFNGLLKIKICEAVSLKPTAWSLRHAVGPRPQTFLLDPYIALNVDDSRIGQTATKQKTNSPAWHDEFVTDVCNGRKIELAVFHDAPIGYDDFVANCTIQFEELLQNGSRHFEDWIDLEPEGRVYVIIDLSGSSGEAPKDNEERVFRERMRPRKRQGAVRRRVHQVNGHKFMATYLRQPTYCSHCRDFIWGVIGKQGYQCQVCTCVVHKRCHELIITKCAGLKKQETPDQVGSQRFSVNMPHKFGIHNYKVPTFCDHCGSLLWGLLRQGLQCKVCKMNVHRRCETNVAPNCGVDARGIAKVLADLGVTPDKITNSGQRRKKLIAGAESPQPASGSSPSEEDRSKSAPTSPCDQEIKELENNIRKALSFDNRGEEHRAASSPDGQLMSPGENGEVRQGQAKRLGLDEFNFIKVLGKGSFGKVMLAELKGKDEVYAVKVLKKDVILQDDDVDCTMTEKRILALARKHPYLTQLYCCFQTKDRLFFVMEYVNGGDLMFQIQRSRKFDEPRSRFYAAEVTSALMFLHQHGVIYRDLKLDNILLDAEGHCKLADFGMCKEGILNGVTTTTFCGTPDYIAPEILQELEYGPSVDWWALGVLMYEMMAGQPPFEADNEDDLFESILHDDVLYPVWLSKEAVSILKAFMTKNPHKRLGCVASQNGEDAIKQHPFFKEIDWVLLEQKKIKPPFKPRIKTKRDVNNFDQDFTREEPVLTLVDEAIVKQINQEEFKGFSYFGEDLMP
Method: Protein kinase C assay. Recombinant PKC (1 ng of alpha or epsilon isofonn) was mixed with the BR-101 (UCP-LA) in the presence of 10 micromoiar histones, 5 mM CaCl2, 1.2 μg/μl phosphatidyl-L-serine, 0.18 μg/μl 1,2-dioctanoyl-sn-glycerol (DAG), […], […] (pH 7.4), 0.8 tnIVI EDTA, 4 mM EGTA, 4% glycerol, 8 μg/ml aprotinin, 8 μ/ml leupeptin, and 2 mM benzamidine. 0.5 micro Ci [^y32P]ATP was added. The incubation mixture was incubated for 15 min at 37 degrees in a total volume of 10 microliters. The reaction was stopped by spotting the reaction mixtures on 1×2 cm strips of cellulose phosphate paper (Whatman P81) and immediately washing twice for 1 hr in 0.5% H3PO4. The cellulose phosphate strips were counted in a scintillation counter. In some experiments, phosphatidylserine, diacylglycerol, and/or calcium were removed.
Protein kinase C assay. Rat hippocampal cells were cultured and scraped in 0.2 ml homogenization buffer (20 triM Tris-HCl, pH 7.4, 50 mM NaF, 1 μg/ml leupeptin, and 0.1 mM PMSF) and homogenized by sonication in a Marsonix micro-probe sonicator (5 see, 10W). To measure PKC, 10 ul of cell homogenate or purified. PKC isozyme (purchased from Calbiochem) was incubated for 15 min at 37° C. in the presence of 10 μM histones, 4.89 mM CaCl2, 1.2 μg/μl phosphatidyl-L-serine, 0.18 μg/μl 1,2-dioctanoyl-sn-glycerol, 10 mM MgCl2, 20 mM HEPES (pH 7.4), 0.8 mM EDTA, 4 mM EGTA, 4% glycerol, 8 μg/ml aprotinin, 8 μg/ml leupeptin, and 2 mM benzamidine. 0.5 μCi [^γ-32P]ATP was added and ^32P-phosphoprotein formation was measured by adsorption onto phosphocellulose as described previously. Nelson and Alkon, J. Neurochemistry. 1995; 65: 2350-57. For measurements of activation by BR-101 (DCP-LA) and similar compounds, PKC activity was measured in the absence of diacylglycerol and phosphatidyl serine, as described by Kanno et al., and PKC δ, ε, η, and μ were measured in the absence of added EGTA and CaCl2, as described by Kanno et al., J. Lipid Res. 2006; 47: 1146-50. Low concentrations of Ca^2+ are used because high Ca^2+ interacts with the PKC phosphatidylserine binding site and prevents activation. For measurements of bryostatin activation, 1,2-diacylglycerol was omitted unless otherwise stated.
To determine their PKC isozyme specificity, the new compounds were preincubated with purified PKC for five minutes and the PKC activity was measured radiometrically.

Aβ = Aβ levels in N2a neuroblastoma cells transfected with human APPSwe/PSID (Aβ1-42 ELISA); type: cell-based, mouse; conditions: for levels of intracellular Aβ / levels of secreted Aβ: 24 h incubation, various concentrations; for levels of intracellular Aβ: FIG. 7a; for levels of secreted Aβ: FIG. 7b; for concentration dependence of Aβ inhibition: BR-101 and BR-111 up to 10 to 100 μM
Method: Cell culture. Rat hippocampal H19-71GF-IR cells (ATCC, Manassas, Va.) were plated onto poly-L-lysine coated plates and grown at 35° C. in DMEM/10% FCS for several days until about 50% coverage was obtained. The cells were then induced to differentiate into a neuronal phenotype by replacing the medium with 5 ml N2 medium containing 10 ng/ml basic fibroblast growth factor at 39° C. and grown in T-75 flasks at 37° C. Human SH-SY5Y neuroblastoma cells (ATCC) were cultured in 45% F12K/45% MEM/10% FCS. Mouse N2A neuroblastoma cells were cultured in DMEM/10% FCS without glutamine. Rat hippocampal neurons from 18-day-old embryonic
AB Measurement and Cell Viability Assay. Aβ was measured using an Aβ1-42 human fluorimetric ELISA kit (Invitrogen) according to the manufacturer's instructions. Results were measured in a Biotek Synergy HT microplate reader. AlamarBlue and CyQuant NF (Invitrogen) according to the manufacturer's instructions.
To measure the effects of PKCε activation on Aβ production, we used mouse neuro2a (N2a) neuroblastoma cells transfected with human APPSwe/PSID, which produce large quantities of Aβ. Petanceska et al., J Neurochem. 1996; 74: 1878-84. […] With bryostatin, which activates PKC by binding to the diacylglycerol-binding site, the inhibition was biphasic, with concentrations of 20 nM or higher producing no net effect. This may be explained by the ability of this class of PKC activators to downregulate PKC when used at high concentrations.

TACE = TACE assay in N2a mouse neuroblastoma cells; type: cell-based; conditions: FIG. 9a
Method: TACE Assay. TACE was measured by incubating 5 μl cell homogenate, 3 μl buffer (50 mM Tris-HCl 7.4 plus 25 mM NaCl plus 4% glycerol), and 1 of 100 μM TACE substrate IV (Aβz-LAQAVRSSSR-DPa) (Calbiochem) for 20 min at 37° in 1.5-ml polypropylene centrifuge tubes (Jin et al., Anal Biochem. 2002; 302: 269-75). The reaction was stopped by cooling to 4° C. The samples were diluted to 1 ml and the fluorescence was rapidly measured (ex=320 nm, em=420 nm) in a Spex Fluorolog 2 spectrofluorometer.

Row | Structure (SMILES) | activation of PKCε (PKCε; at 10 μM, preincubated with purified PKC for five minutes) | activation of PKCε (PKCε; purified PKCε, lowest concentration tested (10 nM), FIG. 2) [fold] | levels of intracellular Aβ (Aβ) | levels of secreted Aβ (Aβ) | concentration dependence of Aβ inhibition (Aβ) | TACE activity (TACE) | activation of purified PKCε (PKCε; FIG. 3) | concentration needed to activate PKC, times lower than for BR-101 (DCP-LA) (PKCε; FIG. 3)
1 | CCCCCC1CC1CC1CC1CCCCCCCC(=O)O (stereo not drawn) [BR-101, 8-[2-(2-pentyl-cyclopropylmethyl)-cyclopropyl]-octanoic acid] | effective activator | 2.75 | markedly reduced | markedly reduced | monotonically increasing inhibition | small increases |  | 
2 | CCC1CC1CC1CC1CC1CC1CC1CC1CC1CC1CC1CC1CCC(=O)OC (stereo not drawn) [BR-111, methyl-3-(2-((2-((2-((2-((2-((2-ethylcyclopropyl)methyl)cyclopropyl)methyl)cyclopropyl)methyl)-cyclopropyl)methyl)cyclopropyl)methyl)cyclopropyl)propanoate] |  |  | markedly reduced | markedly reduced | monotonically increasing inhibition | small increases | activated purified PKCε to a similar extent | approx. 100 times
